Measured values as given in the supplement of paper PMC4862054.

What was measured:
Details in all cases: 72 h
[1] = system: Hs578T
Description: (§1)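 Drug sensitivity and resistance testing (DSRT) of breast cancer cell lines in 384-well plates, 5 concentrations in 10-fold dilutions over a compound-specific 10,000-fold range. After 72 h, cytotoxicity was read by CellTox Green fluorescence and viability by CellTiter-Glo luminescence (multiplexed), normalised to DMSO and benzethonium chloride controls. EC50 is the inflection point of the fitted dose-response curve (bottom asymptote free, so it can be relative for partial curves) and is censored at the highest tested concentration. Rows with DSS 0 (no meaningful response) were excluded.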

[2] = system: HCC1937
How it was run: (§2)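 To measure viability, fluorescence at 560/590 nm was read after 2.5 µl CellTiter-Blue had been added for 2 h at 37 °C. Cells from breast cancer lines had been seeded in 20 µl suspension onto 384-well plates pre-loaded with compound dissolved in 5 µl medium and kept for 72 h. EC50 comes from a fitted percent-inhibition dose-response curve censored at the highest concentration, after per-plate normalisation to vehicle and a positive kill control, Z'-factor checks, and removal of rows with zero drug sensitivity score.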

[3] = system: HCC1599
How it was run: as §2

[4] = system: MDA-MB-468
Description: as §1

[5] = system: DU-4475
How it was run: as §2

[6] = system: CAL-51
How it was run: as §2

[7] = system: CAL-85-1
How it was run: as §2

[8] = system: CAL-148
How it was run: as §2

[9] = system: MDA-MB-453
How it was run: as §2

[10] = system: HDQ-P1
How it was run: as §2

[11] = system: MDA-MB-468; remark: listed apart in the source
How it was run: as §2

[12] = system: MDA-MB-231
How it was run: as §2

[13] = system: HCC1143
How it was run: as §2

[14] = system: MFM-223
How it was run: as §2

[15] = system: CAL-120
How it was run: as §2

[16] = system: MDA-MB-436
How it was run: as §2

[17] = system: SK-BR-3
How it was run: as §2

[18] = system: Hs578T; remark: listed apart in the source
How it was run: as §2

[19] = system: BT-549
How it was run: as §2

[20] = system: BT-474
How it was run: as §2

[21] = system: CAL-120; remark: listed apart in the source
How it was run: (§3)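 A 20 µl suspension of breast cancer cells was placed in 384-well plates that already contained compound at 5 concentrations in 10-fold steps across a compound-specific 10,000-fold range, and the plates were left for 72 h. CellTox Green fluorescence at 485/520 nm gave cell death, and CellTiter-Glo luminescence, read after 10 min at room temperature, gave viability. Each plate was normalised to 0.1 % DMSO and a positive kill control. EC50 was fitted from the curves and censored at the top concentration.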

[22] = system: CAL-51; remark: listed apart in the source
Description: as §1

[23] = system: BT-549; remark: listed apart in the source
Description: as §1

[24] = system: BT-474; remark: listed apart in the source
Description: as §1

[25] = system: DU-4475; remark: listed apart in the source
How it was run: as §3

[26] = system: MDA-MB-468; remark: listed apart in the source
How it was run: as §3

[27] = system: MDA-MB-231; remark: listed apart in the source
How it was run: as §3

[28] = system: HCC1143; remark: listed apart in the source
How it was run: as §3

[29] = system: MFM-223; remark: listed apart in the source
How it was run: as §3

[30] = system: CAL-51; remark: listed apart in the source
How it was run: as §3

[31] = system: CAL-85-1; remark: listed apart in the source
How it was run: as §3

[32] = system: CAL-148; remark: listed apart in the source
How it was run: as §3

[33] = system: SK-BR-3; remark: listed apart in the source
How it was run: as §3

[34] = system: HCC1599; remark: listed apart in the source
How it was run: as §3

[35] = system: MDA-MB-453; remark: listed apart in the source
How it was run: as §3

[36] = system: BT-474; remark: listed apart in the source
How it was run: as §3

[37] = system: HDQ-P1; remark: listed apart in the source
How it was run: as §3

[38] = system: MDA-MB-231; remark: listed apart in the source
Description: as §1

[39] = system: Hs578T; remark: listed apart in the source
How it was run: as §3

[40] = system: MDA-MB-436; remark: listed apart in the source
Description: as §1

`N#Cc1ccc(C(c2ccc(C#N)cc2)n2cncn2)cc1` [Letrozole] was tested, and the “EC50, CellTox Green” value [1] was over 10000 nM, the “EC50, CellTiter-Blue viability” value [2] was over 10000 nM and the “EC50, CellTiter-Blue viability” value [3] was 311 nM.
In the case of `CCN(CC)CCCC(C)Nc1c2ccc(Cl)cc2nc2ccc(OC)cc12` (stereo unspecified) [Mepacrine], the “EC50, CellTox Green” value [4] is reported as over 50000 nM, the “EC50, CellTiter-Blue viability” value [5] is reported as 1600 nM and the “EC50, CellTiter-Blue viability” value [6] is reported as 1950 nM. The “EC50, CellTiter-Blue viability” value [7] was 1800 nM, the “EC50, CellTiter-Blue viability” value [8] was 1140 nM and the “EC50, CellTiter-Blue viability” value [9] was 1260 nM. For the same molecule, the “EC50, CellTiter-Blue viability” value [10] was 833 nM, the “EC50, CellTiter-Blue viability” value [11] was 1430 nM and the “EC50, CellTiter-Blue viability” value [12] was 614 nM. For the same molecule, the “EC50, CellTiter-Blue viability” value [13] was 1520 nM, the “EC50, CellTiter-Blue viability” value [14] was 2220 nM and the “EC50, CellTiter-Blue viability” value [15] was 1120 nM. The “EC50, CellTiter-Blue viability” value [16] was 1290 nM, the “EC50, CellTiter-Blue viability” value [2] was 519 nM and the “EC50, CellTiter-Blue viability” value [17] was 1520 nM. For the same molecule, the “EC50, CellTiter-Blue viability” value [18] was 1980 nM, the “EC50, CellTiter-Blue viability” value [19] was 1440 nM and the “EC50, CellTiter-Blue viability” value [20] was 1760 nM.
`C[C@H]1C[C@@H]2[C@H]([C@@H](O)C[C@@]3(C)[C@H]2CC[C@]3(O)C(=O)CO)[C@@]2(C)C=CC(=O)C=C12` [Methylprednisolone] was tested, and the “EC50, CellTiter-Blue viability” value [9] was 27.7 nM, the “EC50, CellTiter-Glo” value [21] was 23.5 nM and the “EC50, CellTiter-Blue viability” value [19] was 520 nM.
With `O=C(O)C(=O)O.[NH-][C@@H]1CCCC[C@H]1[NH-].[Pt+2]` [Oxaliplatin] the “EC50, CellTiter-Blue viability” value [5] was 9220 nM, the “EC50, CellTiter-Blue viability” value [6] was 9110 nM and the “EC50, CellTiter-Blue viability” value [8] was 5670 nM. For the same molecule, the “EC50, CellTiter-Blue viability” value [9] was 7470 nM, the “EC50, CellTiter-Blue viability” value [11] was 3250 nM and the “EC50, CellTiter-Blue viability” value [13] was 8310 nM. For the same molecule, the “EC50, CellTiter-Blue viability” value [16] was 4310 nM, the “EC50, CellTiter-Blue viability” value [2] was 4810 nM and the “EC50, CellTiter-Blue viability” value [17] was 9660 nM. The “EC50, CellTiter-Blue viability” value [3] was 820 nM and the “EC50, CellTiter-Blue viability” value [19] was 3550 nM.
`C=CCc1cccc(/C=N/NC(=O)CN2CCN(Cc3ccccc3)CC2)c1O` [PAC-1] was tested, and the “EC50, CellTox Green” value [22] was 413 nM, the “EC50, CellTox Green” value [23] was 1190 nM and the “EC50, CellTox Green” value [24] was 3520 nM. For the same molecule, the “EC50, CellTiter-Glo” value [25] was 4350 nM, the “EC50, CellTiter-Glo” value [26] was 4580 nM and the “EC50, CellTiter-Glo” value [27] was 3100 nM. For the same molecule, the “EC50, CellTiter-Glo” value [28] was 6700 nM, the “EC50, CellTiter-Glo” value [29] was 8680 nM and the “EC50, CellTiter-Glo” value [21] was 3790 nM. For the same molecule, the “EC50, CellTiter-Glo” value [30] was 1620 nM, the “EC50, CellTiter-Glo” value [31] was 5250 nM and the “EC50, CellTiter-Glo” value [32] was 6670 nM. For the same molecule, the “EC50, CellTiter-Glo” value [33] was 5200 nM, the “EC50, CellTiter-Glo” value [34] was 7690 nM and the “EC50, CellTiter-Glo” value [35] was 2610 nM. The “EC50, CellTiter-Glo” value [36] was 3910 nM and the “EC50, CellTiter-Glo” value [37] was 4980 nM.
In the case of `Nc1nc2[nH]cc(CCc3ccc(C(=O)N[C@@H](CCC(=O)O)C(=O)O)cc3)c2c(=O)[nH]1` [Pemetrexed], the “EC50, CellTox Green” value [4] is reported as 8620 nM, the “EC50, CellTox Green” value [38] is reported as 2830 nM and the “EC50, CellTox Green” value [1] is reported as 9350 nM. For the same molecule, the “EC50, CellTiter-Blue viability” value [7] was 878 nM, the “EC50, CellTiter-Glo” value [27] was 652 nM and the “EC50, CellTiter-Glo” value [30] was 2.23 nM. For the same molecule, the “EC50, CellTiter-Glo” value [31] was 41.1 nM, the “EC50, CellTiter-Glo” value [33] was 23.1 nM and the “EC50, CellTiter-Glo” value [39] was 47.4 nM. The “EC50, CellTiter-Glo” value [36] was 408 nM, the “EC50, CellTiter-Blue viability” value [13] was over 10000 nM and the “EC50, CellTiter-Blue viability” value [15] was over 10000 nM. For the same molecule, the “EC50, CellTiter-Blue viability” value [17] was 116 nM.
In the case of `CC[C@H](C)C(=O)O[C@H]1C[C@H](O)C=C2C=C[C@H](C)[C@H](CC[C@@H](O)C[C@@H](O)CC(=O)O)[C@H]21` [Pravastatin], the “EC50, CellTox Green” value [4] is reported as 5470 nM, the “EC50, CellTox Green” value [40] is reported as 15.7 nM and the “EC50, CellTox Green” value [22] is reported as 3380 nM. For the same molecule, the “EC50, CellTox Green” value [23] was over 10000 nM, the “EC50, CellTiter-Glo” value [25] was 6590 nM and the “EC50, CellTiter-Glo” value [26] was 5910 nM. The “EC50, CellTiter-Glo” value [28] was 2450 nM, the “EC50, CellTiter-Glo” value [29] was over 10000 nM and the “EC50, CellTiter-Glo” value [21] was 2310 nM. The “EC50, CellTiter-Glo” value [30] was 78 nM, the “EC50, CellTiter-Glo” value [31] was 8620 nM and the “EC50, CellTiter-Glo” value [32] was 6540 nM. For the same molecule, the “EC50, CellTiter-Glo” value [33] was 3820 nM, the “EC50, CellTiter-Glo” value [34] was 3060 nM and the “EC50, CellTiter-Glo” value [36] was 2340 nM. The “EC50, CellTiter-Glo” value [37] was 4740 nM.
